Assay results: article doi:10.1101/2020.06.24.169508v1 (biorxiv, 2020)

Experiments:
[1] = biological target: T1, VhChiP (chitooligosaccharide-specific porin, chitoporin) (Vibrio harveyi, UniProt L0RVU0); assay: biochemical; conditions: read-out: WT ΔTm (fluorescence)
T1 sequence (L0RVU0 26-375): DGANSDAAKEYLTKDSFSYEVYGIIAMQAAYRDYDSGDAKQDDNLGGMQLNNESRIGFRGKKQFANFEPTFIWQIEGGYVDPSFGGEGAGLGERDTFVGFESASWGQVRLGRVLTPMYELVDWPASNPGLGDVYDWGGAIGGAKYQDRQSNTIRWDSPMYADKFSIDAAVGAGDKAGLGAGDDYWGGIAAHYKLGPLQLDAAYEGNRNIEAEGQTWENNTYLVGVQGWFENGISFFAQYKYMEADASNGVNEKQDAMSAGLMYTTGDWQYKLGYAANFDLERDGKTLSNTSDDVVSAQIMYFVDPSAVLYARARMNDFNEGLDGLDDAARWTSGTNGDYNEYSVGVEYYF

[2] = biological target: T1, VhChiP (chitooligosaccharide-specific porin, chitoporin); assay: biochemical; conditions: read-out: WT ΔTm (CD)
[3] = biological target: T1, VhChiP (chitooligosaccharide-specific porin, chitoporin); assay: intrinsic tryptophan fluorescence titration; format: binding; conditions: 20 mM phosphate pH 7.4, 0.2% LDAO, 25 °C; one-site fit

Row | SMILES | ΔTm at 1000 µM [1] [°C] | ΔTm at 100 µM [2] [°C] | K [3]
1 | CC(=O)N[C@H]1[C@H](O[C@H]2[C@H](O)[C@@H](NC(C)=O)[C@H](O[C@H]3[C@H](O)[C@@H](NC(C)=O)C(O)O[C@@H]3CO)O[C@@H]2CO)O[C@H](CO)[C@@H](O[C@@H]2O[C@H](CO)[C@@H](O[C@@H]3O[C@H](CO)[C@@H](O[C@@H]4O[C@H](CO)[C@@H](O)[C@H](O)[C@H]4NC(C)=O)[C@H](O)[C@H]3NC(C)=O)[C@H](O)[C@H]2NC(C)=O)[C@@H]1O (stereo partly shown) [Chitohexaose] | 8 | 7 | 13 ± 0.5 ×10^5 M^-1
2 | CC(=O)N[C@H]1[C@H](O[C@H]2[C@H](O)[C@@H](NC(C)=O)C(O)O[C@@H]2CO)O[C@H](CO)[C@@H](O)[C@@H]1O (stereo partly shown) [Chitobiose] | 4 | 2.1 | 0.1 ± 0.04 ×10^5 M^-1
3 | CC(=O)N[C@H]1[C@H](O[C@H]2[C@H](O)[C@@H](NC(C)=O)[C@H](O[C@H]3[C@H](O)[C@@H](NC(C)=O)C(O)O[C@@H]3CO)O[C@@H]2CO)O[C@H](CO)[C@@H](O[C@@H]2O[C@H](CO)[C@@H](O[C@@H]3O[C@H](CO)[C@@H](O)[C@H](O)[C@H]3NC(C)=O)[C@H](O)[C@H]2NC(C)=O)[C@@H]1O (stereo partly shown) [Chitopentaose] | 6 | 5.7 | 3.8 ± 0.2 ×10^5 M^-1

The next lines start with the values.

Row | ΔTm at 1000 µM [1] [°C] | ΔTm at 100 µM [2] [°C] | K [3] | SMILES
4 | 5 | 3.8 | 1.4 ± 0.01 ×10^5 M^-1 | CC(=O)N[C@H]1[C@H](O[C@H]2[C@H](O)[C@@H](NC(C)=O)C(O)O[C@@H]2CO)O[C@H](CO)[C@@H](O[C@@H]2O[C@H](CO)[C@@H](O[C@@H]3O[C@H](CO)[C@@H](O)[C@H](O)[C@H]3NC(C)=O)[C@H](O)[C@H]2NC(C)=O)[C@@H]1O (stereo partly shown) [Chitotetraose]
5 | 2 | – | – | CC(=O)N[C@H]1C(O)O[C@H](CO)[C@@H](O)[C@@H]1O (stereo partly drawn) [D-GlcNAc]
6 | 4 | 3.2 | 0.5 ± 0.03 ×10^5 M^-1 | CC(=O)N[C@H]1[C@H](O[C@H]2[C@H](O)[C@@H](NC(C)=O)C(O)O[C@@H]2CO)O[C@H](CO)[C@@H](O[C@@H]2O[C@H](CO)[C@@H](O)[C@H](O)[C@H]2NC(C)=O)[C@@H]1O (stereo partly shown) [Chitotriose]
